Tests used:
[1] = pH 5.0; cited from earlier work
[2] = Acid cleavage study of compound 14 (HPLC); type: physicochemical; conditions: pH 3.8 (phosphoric acid added), after 5 min at room temperature, 300 μM, reverse phase HPLC
Procedure: 1 mL of a 300 μM solution of 14 in 50 mM sodium phosphate buffer was prepared and a 50 μL sample was analyzed by reverse phase HPLC (see FIG. 1A). To 400 μL of this solution was added 4 μL concentrated phosphoric acid resulting in a pH value of 3.8.

[3] = Binding studies to hydroxyapatite; conditions: pH 7.4, 37° C., 300 μM, hydroxyapatite 30 eq
Procedure: General procedure: In a falcon tube, the test compound was diluted in phosphate-buffer (4 mM Na2HPO4 containing 150 mM NaCl, pH 7.4) to obtain a solution with a concentration of 300 μM. Hydroxyapatite (30 eq) was added and the suspension was stirred well and incubated at 37° C. Another solution of the samples without hydroxyapatite was used as control. […] (4000 rpm, duration: 60 sec, Heraeus® Megafuge® 1.0) and the absorbance of the supernatant was measured with a spectrophotometer at a wavelength of 495 nm (ε495(doxorubicin)=10 650 M^−1 cm^−1). Each result represents the arithmetic average of three measurements and percent HA binding was calculated.

cathepsin B = target: T1, cathepsin B (Homo sapiens, UniProt P07858); assay: Cleavage studies with cathepsin B (HPLC); type: biochemical
T1 construct: purchased Calbiochem, Germany
Procedure: For cleavage of 16 with cathepsin B, 150 μL of a 50 mM sodium acetate buffer containing 100 mM NaCl, 4 mM EDTA Na2 and 0.15 mg L-cysteine (pH 5.0). 6.7 μL cathepsin B solution (23.8 U/mg, from Calbiochem, Germany) were added to a 100 μL solution of 16 (300 μM in 50 mM sodium phosphate buffer, pH 7.0) and the solution incubated for 1 h at 37° C.
HPLC was carried out with a Symmetry300, C18, 5 μm (4.6×250 mm) HPLC using 15% acetonitrile and 85% 20 mM sodium phosphate buffer (pH 7.0) as mobile phase A and 30% acetonitrile and 70% 20 mM sodium phosphate buffer (pH 7.0) as mobile phase B. The gradient was 0 to 1.5 min 100% phase A, 1.5 to 20 min to 100% B, 20 min to 45 min 100% B, 45 to 55 min to 100% A. Flow 1 mL/min; injection volume: 50 μL.
A 176 μL stock solution of compound 23 [1.5 mM] was diluted with 9 μL cathepsin B (0.4 mg/mL, 23.8 U/mg, from Calbiochem, Germany) and 264 μL of buffer (50 mM sodium acetate, 100 mM NaCl, 4 mM EDTA, pH 5.0) containing L-cysteine (8 mM). The mixture was incubated at 37° C. and aliquots (65 μL) were taken after 0 min, 20 min, 40 min, 60 min and 120 min and analyzed by HPLC. […]

[4] = Binding studies to native bone matrix; parameters: species or system bovine; conditions: after 4 h, pH 7.4, 37° C., 300 μM, about 50 mg bone piece
Procedure: For this binding assay, bovine bone fragments were cut into small pieces (6 mm×4 mm×1 mm). The bone pieces were left untreated, washed with water (bidest.) and with absolute ethanol and dried over night at room temperature. Then, in a falcon tube the prodrugs were dissolved in phosphate-buffer (4 mM Na2HPO4 containing 150 mM NaCl, pH 7.4) to obtain a concentration of 300 μM. Approximately 50 mg of an untreated bone piece was added to the clear red solution, and the samples were incubated under stirring at 37° C. After 4 h, the samples were centrifuged (4000 rpm, duration: 60 sec, Heraeus® Megafuge® 1.0), and the absorbance of the supernatant was measured with a spectrophotometer at a wavelength of 495 nm (ε495(doxorubicin)=10650 M^−1 cm^−1). Percent bone binding was calculated

COc1cccc2c1C(=O)c1c(O)c3c(c(O)c1C2=O)C[C@@](O)(/C(CO)=N/NC(=O)CCCCCN1C(=O)C=CC1=O)C[C@@H]3O[C@H]1C[C@H](N)[C@H](O)[C@H](C)O1 [DOXO-EMCH, 6-maleimidocaproylhydazone derivative of doxorubicin]
acid-sensitive cleavage releasing doxorubicin [1]: cleavable at pH 5.0

COc1cccc2c1C(=O)c1c(O)c3c(c(O)c1C2=O)C[C@@](O)(/C(CO)=N/NC(=O)CCCCCN1C(=O)CC(SCCCSCC(P(=O)(O)O)P(=O)(O)O)C1=O)C[C@@H]3OC1C[C@@H](N)[C@@H](O)[C@@H](C)O1 (stereo partly shown) [compound 14]
cleavage to doxorubicin [2]: rapid cleavage to doxorubicin
percent HA binding ([3]; after 5 h): ~80%
percent HA binding ([3]; after one hour): approximately 50%

COc1cccc2c1C(=O)c1c(O)c3c(c(O)c1C2=O)C[C@@](O)(C(=O)CO)CC3O[C@H]1C[C@H](NC(=O)OCc2ccc(NC(=O)C(CCCCN)NC(=O)C(Cc3ccccc3)NC(=O)CCCCCN3C(=O)CC(SCCCSCC(P(=O)(O)O)P(=O)(O)O)C3=O)cc2)[C@H](O)[C@H](C)O1 (stereo partly shown) [compound 16]
cleavage to doxorubicin by cathepsin B (cathepsin B; incubation 1 h at 37° C., buffer pH 5.0, reverse phase HPLC): complete cleavage to doxorubicin

COc1cccc2c1C(=O)c1c(O)c3c(c(O)c1C2=O)C[C@@](O)(C(=O)CO)CC3O[C@H]1C[C@H](NC(=O)OCc2ccc(NC(=O)[C@H](C)NC(=O)[C@@H](NC(=O)CCCCCN3C(=O)CC(SCCCSCC(P(=O)(O)O)P(=O)(O)O)C3=O)C(C)C)cc2)[C@H](O)[C@H](C)O1 (stereo partly shown) [compound 23]
cleavage to doxorubicin by cathepsin B (cathepsin B; incubation 2 h at 37° C., pH 5.0, reversed phase HPLC): complete cleavage to doxorubicin
percent HA binding ([3]; after 5 h): over 90%
percent HA binding ([3]; after 24 h): ~100%
percent HA binding ([3]; after one hour): approximately 50%

COc1cccc2c1C(=O)c1c(O)c3c(c(O)c1C2=O)C[C@@](O)(C(=O)CO)C[C@@H]3O[C@H]1C[C@H](N)[C@H](O)[C@H](C)O1 [doxorubicin]
percent bone binding [4]: no binding
